This is an account of results in ChEMBL document CHEMBL4152309, “N-phenylsulfonyl-3,5-bis(arylidene)-4-piperidone derivatives as activation NF-κB inhibitors in hepatic carcinoma cell lines” (Eur J Med Chem, 2018).

The subject of one data set is SMMC-7721. As to the kind of experiment: Cytotoxicity against human SMMC7721 cells assessed as reduction in cell viability after 24 hrs by MTT assay. Format: functional, cell-based.
Conditions: not given
`COc1cccc2c1C(=O)c1c(O)c3c(c(O)c1C2=O)C[C@@](O)(C(=O)CO)C[C@@H]3O[C@H]1C[C@H](N)[C@H](O)[C@H](C)O1` [DOXORUBICIN]: the Activity result was “Dose-dependent effect”.

Staying with this data set, now noted: SMMC-7721, 24 h.
Regarding `O=C1/C(=C/c2ccccc2F)CN(S(=O)(=O)c2ccc(F)cc2)C/C1=C\c1ccccc1F`, the half-maximal inhibitory concentration (IC50) was 8.37 µM.
Still for that read-out and setting: the same measure for `COc1cc(/C=C/C(=O)CC(=O)/C=C/c2ccc(O)c(OC)c2)ccc1O` [CURCUMIN]: 19.5 µM; for `COc1cc(/C=C2\CN(S(=O)(=O)c3ccc(F)cc3)C/C(=C\c3cc(OC)cc(OC)c3)C2=O)cc(OC)c1`: 8.21 µM.
On the same count and under the same terms, to `COc1cc(/C=C2\CN(S(=O)(=O)c3ccc(F)cc3)C/C(=C\c3cccc([N+](=O)[O-])c3)C2=O)cc(OC)c1OC` belongs 4.9 µM; to `O=C1/C(=C/c2cccc([N+](=O)[O-])c2)CN(S(=O)(=O)c2ccc(F)cc2)C/C1=C\c1ccccc1F`, 7.82 µM.
Still for that read-out and setting: the same measure for `COc1cc(/C=C2\CN(S(=O)(=O)c3ccc(NC(C)=O)cc3)C/C(=C\c3ccccc3F)C2=O)cc(OC)c1`: 5.21 µM; for `COc1cc(/C=C2\CN(S(=O)(=O)c3ccc(NC(C)=O)cc3)C/C(=C\c3cc(OC)c(OC)c(OC)c3)C2=O)cc(OC)c1OC`: 3.47 µM.
As for `CC(=O)Nc1ccc(S(=O)(=O)N2C/C(=C\c3cccc([N+](=O)[O-])c3)C(=O)/C(=C/c3cccc([N+](=O)[O-])c3)C2)cc1`, the half-inhibitory concentration (IC50) was determined as 8.42 µM.
On the same count and under the same terms, to `COc1cc(/C=C2\CN(S(=O)(=O)c3ccc(F)cc3)C/C(=C\c3ccc(C#N)cc3)C2=O)cc(OC)c1OC` belongs 4.12 µM; to `COc1cccc2c1C(=O)c1c(O)c3c(c(O)c1C2=O)C[C@@](O)(C(=O)CO)C[C@@H]3O[C@H]1C[C@H](N)[C@H](O)[C@H](C)O1` [DOXORUBICIN], 1.47 µM.

The subject of the next data set is HepG2. As to the kind of experiment: Cytotoxicity against human HepG2 cells assessed as reduction in cell viability after 24 hrs by MTT assay. The format is functional, cell-based.
Conditions: not given
Take `COc1cccc2c1C(=O)c1c(O)c3c(c(O)c1C2=O)C[C@@](O)(C(=O)CO)C[C@@H]3O[C@H]1C[C@H](N)[C@H](O)[C@H](C)O1` [DOXORUBICIN]: the Activity result was “Dose-dependent effect”.

Still in this data set, the particulars now being: HepG2, 24 h.
On to `O=C1/C(=C/c2ccccc2F)CN(S(=O)(=O)c2ccc(F)cc2)C/C1=C\c1ccccc1F`, for which the IC50 is 7.22 µM.
Same read-out and setting: to `COc1cc(/C=C/C(=O)CC(=O)/C=C/c2ccc(O)c(OC)c2)ccc1O` [CURCUMIN] belongs 16 µM.
On the same count and under the same terms, the same measure for `COc1cc(/C=C2\CN(S(=O)(=O)c3ccc(F)cc3)C/C(=C\c3cc(OC)cc(OC)c3)C2=O)cc(OC)c1`: 8.1 µM.
The same measure, in the same setting: to `COc1cc(/C=C2\CN(S(=O)(=O)c3ccc(F)cc3)C/C(=C\c3cccc([N+](=O)[O-])c3)C2=O)cc(OC)c1OC` belongs 3.25 µM.
Take `O=C1/C(=C/c2cccc([N+](=O)[O-])c2)CN(S(=O)(=O)c2ccc(F)cc2)C/C1=C\c1ccccc1F`: the IC50 came to 7.04 µM.
Still for that read-out and setting: the same measure for `COc1cc(/C=C2\CN(S(=O)(=O)c3ccc(NC(C)=O)cc3)C/C(=C\c3ccccc3F)C2=O)cc(OC)c1`: 6.8 µM.
The same measure, in the same setting: to `COc1cc(/C=C2\CN(S(=O)(=O)c3ccc(NC(C)=O)cc3)C/C(=C\c3cc(OC)c(OC)c(OC)c3)C2=O)cc(OC)c1OC` belongs 3.89 µM; to `CC(=O)Nc1ccc(S(=O)(=O)N2C/C(=C\c3cccc([N+](=O)[O-])c3)C(=O)/C(=C/c3cccc([N+](=O)[O-])c3)C2)cc1`, 7.14 µM.
Regarding `COc1cc(/C=C2\CN(S(=O)(=O)c3ccc(F)cc3)C/C(=C\c3ccc(C#N)cc3)C2=O)cc(OC)c1OC`, the IC50 came to 4.95 µM.
Same read-out and setting: to `COc1cccc2c1C(=O)c1c(O)c3c(c(O)c1C2=O)C[C@@](O)(C(=O)CO)C[C@@H]3O[C@H]1C[C@H](N)[C@H](O)[C@H](C)O1` [DOXORUBICIN] belongs 1.01 µM.

Test system in another data set: not listed separately
As to the kind of experiment: Cytotoxicity against human HHL5 cells assessed as reduction in cell viability after 24 hrs by MTT assay. Format: cell-based. To be noted: HHL-5, 24 h.
For the compound `O=C1/C(=C/c2ccccc2F)CN(S(=O)(=O)c2ccc(F)cc2)C/C1=C\c1ccccc1F`, the IC50 is 13.4 µM.
Same read-out and setting: to `COc1cc(/C=C/C(=O)CC(=O)/C=C/c2ccc(O)c(OC)c2)ccc1O` [CURCUMIN] belongs 22.3 µM.
Consider `COc1cc(/C=C2\CN(S(=O)(=O)c3ccc(F)cc3)C/C(=C\c3cc(OC)cc(OC)c3)C2=O)cc(OC)c1`, for which the IC50 stood at 14.4 µM.
On the same count and under the same terms, the same measure for `COc1cc(/C=C2\CN(S(=O)(=O)c3ccc(F)cc3)C/C(=C\c3cccc([N+](=O)[O-])c3)C2=O)cc(OC)c1OC`: 11.1 µM; for `O=C1/C(=C/c2cccc([N+](=O)[O-])c2)CN(S(=O)(=O)c2ccc(F)cc2)C/C1=C\c1ccccc1F`: 17.8 µM; for `COc1cc(/C=C2\CN(S(=O)(=O)c3ccc(NC(C)=O)cc3)C/C(=C\c3ccccc3F)C2=O)cc(OC)c1`: 15.3 µM.
On the same count and under the same terms, the same measure for `COc1cc(/C=C2\CN(S(=O)(=O)c3ccc(NC(C)=O)cc3)C/C(=C\c3cc(OC)c(OC)c(OC)c3)C2=O)cc(OC)c1OC`: 13.8 µM.
Same read-out and setting: to `CC(=O)Nc1ccc(S(=O)(=O)N2C/C(=C\c3cccc([N+](=O)[O-])c3)C(=O)/C(=C/c3cccc([N+](=O)[O-])c3)C2)cc1` belongs 17.8 µM; to `COc1cc(/C=C2\CN(S(=O)(=O)c3ccc(F)cc3)C/C(=C\c3ccc(C#N)cc3)C2=O)cc(OC)c1OC`, 12.9 µM.
In the case of `COc1cccc2c1C(=O)c1c(O)c3c(c(O)c1C2=O)C[C@@](O)(C(=O)CO)C[C@@H]3O[C@H]1C[C@H](N)[C@H](O)[C@H](C)O1` [DOXORUBICIN], the half-maximal inhibitory concentration (IC50) is 9.27 µM.

The test system of the next data set is QGY-7703. As to the kind of experiment: Cytotoxicity against human QGY7703 cells assessed as reduction in cell viability after 24 hrs by MTT assay. The format is functional, cell-based.
Conditions: not given
`COc1cccc2c1C(=O)c1c(O)c3c(c(O)c1C2=O)C[C@@](O)(C(=O)CO)C[C@@H]3O[C@H]1C[C@H](N)[C@H](O)[C@H](C)O1` [DOXORUBICIN]: the Activity entry is “Dose-dependent effect”.

Staying with this data set, now noted: QGY-7703, 24 h.
Consider `O=C1/C(=C/c2ccccc2F)CN(S(=O)(=O)c2ccc(F)cc2)C/C1=C\c1ccccc1F`, for which the IC50 was 8.5 µM.
On the same count and under the same terms, to `COc1cc(/C=C/C(=O)CC(=O)/C=C/c2ccc(O)c(OC)c2)ccc1O` [CURCUMIN] belongs 21.4 µM; to `COc1cc(/C=C2\CN(S(=O)(=O)c3ccc(F)cc3)C/C(=C\c3cc(OC)cc(OC)c3)C2=O)cc(OC)c1`, 11.4 µM.
Still for that read-out and setting: the same measure for `COc1cc(/C=C2\CN(S(=O)(=O)c3ccc(F)cc3)C/C(=C\c3cccc([N+](=O)[O-])c3)C2=O)cc(OC)c1OC`: 3.27 µM; for `O=C1/C(=C/c2cccc([N+](=O)[O-])c2)CN(S(=O)(=O)c2ccc(F)cc2)C/C1=C\c1ccccc1F`: 14.9 µM; for `COc1cc(/C=C2\CN(S(=O)(=O)c3ccc(NC(C)=O)cc3)C/C(=C\c3ccccc3F)C2=O)cc(OC)c1`: 3.69 µM.
Still for that read-out and setting: the same measure for `COc1cc(/C=C2\CN(S(=O)(=O)c3ccc(NC(C)=O)cc3)C/C(=C\c3cc(OC)c(OC)c(OC)c3)C2=O)cc(OC)c1OC`: 1.9 µM; for `CC(=O)Nc1ccc(S(=O)(=O)N2C/C(=C\c3cccc([N+](=O)[O-])c3)C(=O)/C(=C/c3cccc([N+](=O)[O-])c3)C2)cc1`: 6.76 µM; for `COc1cc(/C=C2\CN(S(=O)(=O)c3ccc(F)cc3)C/C(=C\c3ccc(C#N)cc3)C2=O)cc(OC)c1OC`: 4.98 µM.
For `COc1cccc2c1C(=O)c1c(O)c3c(c(O)c1C2=O)C[C@@](O)(C(=O)CO)C[C@@H]3O[C@H]1C[C@H](N)[C@H](O)[C@H](C)O1` [DOXORUBICIN], the IC50 came to 1.44 µM.

The next data set concerns L02. Nature of the data set: Cytotoxicity against human LO2 cells assessed as reduction in cell viability after 24 hrs by MTT assay. Particulars: L02, 24 h. The format is cell-based.
Turning to `O=C1/C(=C/c2ccccc2F)CN(S(=O)(=O)c2ccc(F)cc2)C/C1=C\c1ccccc1F`, the half-maximal inhibitory concentration (IC50) is 19.1 µM.
On the same count and under the same terms, the same measure for `COc1cc(/C=C/C(=O)CC(=O)/C=C/c2ccc(O)c(OC)c2)ccc1O` [CURCUMIN]: 23.9 µM.
Still for that read-out and setting: to `COc1cc(/C=C2\CN(S(=O)(=O)c3ccc(F)cc3)C/C(=C\c3cc(OC)cc(OC)c3)C2=O)cc(OC)c1` belongs 19.8 µM.
The same measure, in the same setting: the same measure for `COc1cc(/C=C2\CN(S(=O)(=O)c3ccc(F)cc3)C/C(=C\c3cccc([N+](=O)[O-])c3)C2=O)cc(OC)c1OC`: 18.8 µM; for `O=C1/C(=C/c2cccc([N+](=O)[O-])c2)CN(S(=O)(=O)c2ccc(F)cc2)C/C1=C\c1ccccc1F`: 17 µM; for `COc1cc(/C=C2\CN(S(=O)(=O)c3ccc(NC(C)=O)cc3)C/C(=C\c3ccccc3F)C2=O)cc(OC)c1`: 15.4 µM.
Consider `COc1cc(/C=C2\CN(S(=O)(=O)c3ccc(NC(C)=O)cc3)C/C(=C\c3cc(OC)c(OC)c(OC)c3)C2=O)cc(OC)c1OC`, for which the IC50 was determined as 13.6 µM.
The same measure, in the same setting: the same measure for `CC(=O)Nc1ccc(S(=O)(=O)N2C/C(=C\c3cccc([N+](=O)[O-])c3)C(=O)/C(=C/c3cccc([N+](=O)[O-])c3)C2)cc1`: 15.8 µM; for `COc1cc(/C=C2\CN(S(=O)(=O)c3ccc(F)cc3)C/C(=C\c3ccc(C#N)cc3)C2=O)cc(OC)c1OC`: 12.9 µM.
Same read-out and setting: the same measure for `COc1cccc2c1C(=O)c1c(O)c3c(c(O)c1C2=O)C[C@@](O)(C(=O)CO)C[C@@H]3O[C@H]1C[C@H](N)[C@H](O)[C@H](C)O1` [DOXORUBICIN]: 7.87 µM.

Test system in a further data set: not listed separately
As to the kind of experiment: Cytotoxicity against mouse RAW264.7 cells assessed as cell viability at 10 uM after 24 hrs by MTT assay relative to control. The format is cell-based. To be noted: read-out: Activity.
With `O=C1/C(=C/c2ccccc2F)CN(S(=O)(=O)c2ccc(F)cc2)C/C1=C\c1ccccc1F`, the viability at 24 h, 10 µM is over 80%.
Take `COc1cc(/C=C2\CN(S(=O)(=O)c3ccc(F)cc3)C/C(=C\c3cc(OC)cc(OC)c3)C2=O)cc(OC)c1`: the viability at 24 h, 10 µM was over 80%.
On to `COc1cc(/C=C2\CN(S(=O)(=O)c3ccc(F)cc3)C/C(=C\c3cccc([N+](=O)[O-])c3)C2=O)cc(OC)c1OC`, for which the viability at 24 h, 10 µM was over 80%.
Same read-out and setting: to `O=C1/C(=C/c2cccc([N+](=O)[O-])c2)CN(S(=O)(=O)c2ccc(F)cc2)C/C1=C\c1ccccc1F` belongs over 80%.
The same measure, in the same setting: to `COc1cc(/C=C2\CN(S(=O)(=O)c3ccc(NC(C)=O)cc3)C/C(=C\c3ccccc3F)C2=O)cc(OC)c1` belongs over 80%.
Still for that read-out and setting: to `COc1cc(/C=C2\CN(S(=O)(=O)c3ccc(NC(C)=O)cc3)C/C(=C\c3cc(OC)c(OC)c(OC)c3)C2=O)cc(OC)c1OC` belongs over 80%; to `CC(=O)Nc1ccc(S(=O)(=O)N2C/C(=C\c3cccc([N+](=O)[O-])c3)C(=O)/C(=C/c3cccc([N+](=O)[O-])c3)C2)cc1`, over 80%; to `COc1cc(/C=C2\CN(S(=O)(=O)c3ccc(F)cc3)C/C(=C\c3ccc(C#N)cc3)C2=O)cc(OC)c1OC`, over 80%.
